Measured values published in ChEMBL document CHEMBL1201861, “Genomics of Drug Sensitity in Cancer screening data, Wellcome Trust Sanger Institute”.

What was measured:
Assay in all cases: cells
Ca-Ski = assay type: functional, cell-based; settings: Homo sapiens;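 note: cell viability assay measuring inhibition of Ca-Ski cell growth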
Description: SANGER: Inhibition of human Ca-Ski cell growth in a cell viability assay.

DOK = assay type: functional, cell-based; settings: Homo sapiens;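 note: cell viability assay read-out, values reflect inhibition of cell growth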
Description: SANGER: Inhibition of human DOK cell growth in a cell viability assay.

DU-145 = assay type: functional, cell-based; settings: Homo sapiens
Description: SANGER: Inhibition of human DU-145 cell growth in a cell viability assay.

EC-GI-10 = assay type: functional, cell-based, Homo sapiens; settings: Homo sapiens, EC-GI-10
Description: SANGER: Inhibition of human EC-GI-10 cell growth in a cell viability assay.

GP5d = assay type: functional, cell-based; settings: Homo sapiens;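 note: growth inhibition of human GP5d cells, read out with a cell viability assay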
Description: SANGER: Inhibition of human GP5d cell growth in a cell viability assay.

HCC1569 = assay type: functional, cell-based; settings: Homo sapiens;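 note: growth inhibition of human HCC1569 cells, read out with a cell viability assay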
Description: SANGER: Inhibition of human HCC1569 cell growth in a cell viability assay.

HO-1-N-1 = assay type: functional, cell-based; settings: Homo sapiens;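 note: growth inhibition of human HO-1-N-1 cells, read out with a cell viability assay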
Description: SANGER: Inhibition of human HO-1-N-1 cell growth in a cell viability assay.

HT1197 = assay type: functional, cell-based, HT-1197; settings: Homo sapiens
Description: SANGER: Inhibition of human HT-1197 cell growth in a cell viability assay.

HuP-T4 = assay type: functional, cell-based; settings: Homo sapiens;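 note: cell viability assay measuring how much HuP-T4 cell growth is inhibited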
Description: SANGER: Inhibition of human HuP-T4 cell growth in a cell viability assay.

IGR-1 = assay type: functional, cell-based; settings: Homo sapiens;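 note: growth inhibition of human IGR-1 cells, read out with a cell viability assay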
Description: SANGER: Inhibition of human IGR-1 cell growth in a cell viability assay.

IGROV-1 = assay type: functional, cell-based; settings: Homo sapiens;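 note: reduction of IGROV-1 cell growth, read out with a viability assay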
Description: SANGER: Inhibition of human IGROV-1 cell growth in a cell viability assay.

J82 = assay type: functional, cell-based; settings: Homo sapiens;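 note: growth inhibition of J82 cells, read out with a cell viability assay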
Description: SANGER: Inhibition of human J82 cell growth in a cell viability assay.

K052 = assay type: functional, cell-based, Homo sapiens; settings: Homo sapiens, K052;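 note: Read-out from a cell viability assay, IC50 reflecting suppression of K052 cell growth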
Description: SANGER: Inhibition of human K052 cell growth in a cell viability assay.

KYSE-520 cell line = assay type: functional, cell-based; settings: Homo sapiens;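 note: growth inhibition of human KYSE-520 cells, read out with a viability assay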
Description: SANGER: Inhibition of human KYSE-520 cell growth in a cell viability assay.

LU-99A = assay type: functional, cell-based; settings: Homo sapiens;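 note: growth inhibition of LU-99A cells, read out with a cell viability assay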
Description: SANGER: Inhibition of human LU-99A cell growth in a cell viability assay.

M14 = assay type: functional, cell-based; settings: Homo sapiens;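 note: growth inhibition of M14 cells, read out with a cell viability assay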
Description: SANGER: Inhibition of human M14 cell growth in a cell viability assay.

MDA-MB-231 = assay type: functional, cell-based; settings: Homo sapiens
Description: SANGER: Inhibition of human MDA-MB-231 cell growth in a cell viability assay.

MEL-JUSO = assay type: functional, cell-based; settings: Homo sapiens;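 note: growth inhibition of human MEL-JUSO cells, read out with a cell viability assay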
Description: SANGER: Inhibition of human MEL-JUSO cell growth in a cell viability assay.

MFE-280 = assay type: functional, cell-based; settings: Homo sapiens;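 note: growth inhibition of MFE-280 cells, determined with a cell viability readout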
Description: SANGER: Inhibition of human MFE-280 cell growth in a cell viability assay.

NCI-H1417 = assay type: functional, cell-based, Homo sapiens; settings: Homo sapiens, NCI-H1417;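 note: human NCI-H1417 cells, growth inhibition determined with a cell viability readout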
Description: SANGER: Inhibition of human NCI-H1417 cell growth in a cell viability assay.

NCI-H1755 = assay type: functional, cell-based; settings: Homo sapiens;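 note: cell viability readout used to measure growth inhibition of NCI-H1755 cells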
Description: SANGER: Inhibition of human NCI-H1755 cell growth in a cell viability assay.

NCI-H1993 = assay type: functional, cell-based; settings: Homo sapiens;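 note: growth inhibition of the cancer cell line, assessed with a cell viability assay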
Description: SANGER: Inhibition of human NCI-H1993 cell growth in a cell viability assay.

NCI-H2081 = assay type: functional, cell-based, Homo sapiens; settings: Homo sapiens, NCI-H2081;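 note: growth inhibition of human NCI-H2081 cells, read out with a cell viability assay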
Description: SANGER: Inhibition of human NCI-H2081 cell growth in a cell viability assay.

NCI-H2087 = assay type: functional, cell-based; settings: Homo sapiens;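 note: growth inhibition determined with a cell viability readout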
Description: SANGER: Inhibition of human NCI-H2087 cell growth in a cell viability assay.

NCI-H2196 = assay type: functional, cell-based, Homo sapiens; settings: Homo sapiens, NCI-H2196; read-out: IC50;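 note: cell viability assay used as the readout of growth inhibition in NCI-H2196 cells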
Description: SANGER: Inhibition of human NCI-H2196 cell growth in a cell viability assay.

NCI-H2342 = assay type: functional, cell-based; settings: Homo sapiens;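 note: growth inhibition of the cancer cell line, determined with a cell viability assay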
Description: SANGER: Inhibition of human NCI-H2342 cell growth in a cell viability assay.

NCI-H292 = assay type: functional, cell-based; settings: Homo sapiens;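 note: growth inhibition of NCI-H292 cells, read out with a cell viability assay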
Description: SANGER: Inhibition of human NCI-H292 cell growth in a cell viability assay.

NCI-H520 = assay type: functional, cell-based; settings: Homo sapiens;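 note: growth inhibition of NCI-H520 cells, measured by a cell viability assay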
Description: SANGER: Inhibition of human NCI-H520 cell growth in a cell viability assay.

NCI-H64 = assay type: functional, cell-based, Homo sapiens; settings: Homo sapiens, NCI-H64;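 note: growth inhibition of NCI-H64 cells, read out with a cell viability assay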
Description: SANGER: Inhibition of human NCI-H64 cell growth in a cell viability assay.

OAW-28 = assay type: functional, cell-based; settings: Homo sapiens;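 note: growth inhibition of OAW-28 cells, read out with a cell viability assay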
Description: SANGER: Inhibition of human OAW-28 cell growth in a cell viability assay.

OVCAR-5 = assay type: functional, cell-based; settings: Homo sapiens;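 note: growth inhibition of human OVCAR-5 cells, read out with a cell viability assay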
Description: SANGER: Inhibition of human OVCAR-5 cell growth in a cell viability assay.

PF-382 = assay type: functional, cell-based, Homo sapiens; settings: Homo sapiens, PF-382
Description: SANGER: Inhibition of human PF-382 cell growth in a cell viability assay.

RL95-2 = assay type: functional, cell-based, Homo sapiens; settings: Homo sapiens, RL95-2;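 note: RL95-2 growth inhibition determined through a cell viability readout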
Description: SANGER: Inhibition of human RL95-2 cell growth in a cell viability assay.

RPMI-2650 = assay type: functional, cell-based; settings: Homo sapiens
Description: SANGER: Inhibition of human RPMI-2650 cell growth in a cell viability assay.

RVH-421 = assay type: functional, cell-based; settings: Homo sapiens
Description: SANGER: Inhibition of human RVH-421 cell growth in a cell viability assay.

S-117 = assay type: functional, cell-based; settings: Homo sapiens
Description: SANGER: Inhibition of human S-117 cell growth in a cell viability assay.

SBC-5 = assay type: functional, cell-based; settings: Homo sapiens;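 note: cell viability assay read-out, IC50 is the concentration that inhibits growth of the cells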
Description: SANGER: Inhibition of human SBC-5 cell growth in a cell viability assay.

SCC-3 = assay type: functional, cell-based, Homo sapiens; settings: Homo sapiens, SCC-3;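 note: cell viability assay measuring inhibition of SCC-3 cell growth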
Description: SANGER: Inhibition of human SCC-3 cell growth in a cell viability assay.

SK-OV-3 = assay type: functional, cell-based; settings: Homo sapiens;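 note: growth inhibition of SK-OV-3 human cells, read out with a cell viability assay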
Description: SANGER: Inhibition of human SK-OV-3 cell growth in a cell viability assay.

SNU-423 = assay type: functional, cell-based; settings: Homo sapiens
Description: SANGER: Inhibition of human SNU-423 cell growth in a cell viability assay.

SUP-T1 = assay type: functional, cell-based, Homo sapiens; settings: Homo sapiens, SUP-T1;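 note: growth inhibition of human SUP-T1 cells, read out as cell viability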
Description: SANGER: Inhibition of human SUP-T1 cell growth in a cell viability assay.

SW1088 = assay type: functional, cell-based; settings: Homo sapiens;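 note: growth inhibition of human SW1088 cells, read out by a cell viability assay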
Description: SANGER: Inhibition of human SW1088 cell growth in a cell viability assay.

SW48 = assay type: functional, cell-based; settings: Homo sapiens;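 note: growth inhibition of SW48 cells, read out with a cell viability assay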
Description: SANGER: Inhibition of human SW48 cell growth in a cell viability assay.

T47D = assay type: functional, cell-based; settings: Homo sapiens;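 note: growth inhibition of human T47D cells, measured with a cell viability assay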
Description: SANGER: Inhibition of human T47D cell growth in a cell viability assay.

CWR22R = assay type: functional, cell-based; settings: Homo sapiens, 22Rv1;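 note: growth inhibition of 22Rv1 cells, read out with a cell viability assay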
Description: SANGER: Inhibition of human 22RV1 cell growth in a cell viability assay.

639-V = assay type: functional, cell-based; settings: Homo sapiens;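 note: growth inhibition of 639-V cells, read out with a cell viability assay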
Description: SANGER: Inhibition of human 639-V cell growth in a cell viability assay.

ASPC1 = assay type: functional, cell-based; settings: Homo sapiens;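 note: growth inhibition of AsPC-1 cells, read out with a cell viability assay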
Description: SANGER: Inhibition of human AsPC-1 cell growth in a cell viability assay.

BOKU = assay type: functional, cell-based; settings: Homo sapiens;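 note: growth inhibition of the human BOKU cell line, read out by a cell viability assay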
Description: SANGER: Inhibition of human BOKU cell growth in a cell viability assay.

C32 = assay type: functional, cell-based; settings: Homo sapiens;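 note: cell viability assay, with IC50 reflecting inhibition of C32 cell growth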
Description: SANGER: Inhibition of human C32 cell growth in a cell viability assay.

CAL-120 = assay type: functional, cell-based; settings: Homo sapiens;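 note: cell growth inhibition, read out as cell viability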
Description: SANGER: Inhibition of human CAL-120 cell growth in a cell viability assay.

CAL-27 = assay type: functional, cell-based; settings: Homo sapiens;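 note: Viability-based readout, IC50 reflecting inhibition of CAL-27 cell growth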
Description: SANGER: Inhibition of human CAL-27 cell growth in a cell viability assay.

CAL-62 = assay type: functional, cell-based; settings: Homo sapiens;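 note: growth inhibition of CAL-62 cells, read out with a cell viability assay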
Description: SANGER: Inhibition of human CAL-62 cell growth in a cell viability assay.

TUR = assay type: functional, cell-based, Homo sapiens; settings: Homo sapiens, TUR;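 note: growth inhibition of human TUR cells, read out with a cell viability assay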
Description: SANGER: Inhibition of human TUR cell growth in a cell viability assay.

U-698-M = assay type: functional, cell-based, Homo sapiens; settings: Homo sapiens, U-698-M
Description: SANGER: Inhibition of human U-698-M cell growth in a cell viability assay.

UACC-62 = assay type: functional, cell-based; settings: Homo sapiens;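 note: growth inhibition of human UACC-62 cells, read out by a cell viability assay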
Description: SANGER: Inhibition of human UACC-62 cell growth in a cell viability assay.

VMRC-RCZ = assay type: functional, cell-based; settings: Homo sapiens;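 note: growth inhibition measured with a cell viability assay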
Description: SANGER: Inhibition of human VMRC-RCZ cell growth in a cell viability assay.

CHL-1 = assay type: functional, cell-based; settings: Homo sapiens;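 note: cell growth inhibition, read out with a cell viability assay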
Description: SANGER: Inhibition of human CHL-1 cell growth in a cell viability assay.

NCI-H1573 = assay type: functional, cell-based; settings: Homo sapiens;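 note: growth inhibition of NCI-H1573 cells, read out with a cell viability assay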
Description: SANGER: Inhibition of human NCI-H1573 cell growth in a cell viability assay.

Measured: IC50

COC(=O)[C@H](CCSC)NC(=O)c1ccc(NC[C@@H](N)CS)cc1-c1ccccc1
0.184 µM: MEL-JUSO
> 1.02 µM: Ca-Ski | DOK | DU-145 | EC-GI-10 | GP5d | HCC1569 | HO-1-N-1 | HT1197 | HuP-T4 | IGR-1 | IGROV-1 | J82 | K052 | KYSE-520 cell line | LU-99A | M14 | MDA-MB-231 | MFE-280 | NCI-H1417 | NCI-H1755 | NCI-H1993 | NCI-H2081 | NCI-H2087 | NCI-H2196 | NCI-H2342 | NCI-H292 | NCI-H520 | NCI-H64 | OAW-28 | OVCAR-5 | PF-382 | RL95-2 | RPMI-2650 | RVH-421 | S-117 | SBC-5 | SCC-3 | SK-OV-3 | SNU-423 | SUP-T1 | SW1088 | SW48 | T47D | CWR22R | 639-V | ASPC1 | BOKU | C32 | CAL-120 | CAL-27 | CAL-62 | TUR | U-698-M | UACC-62 | VMRC-RCZ | CHL-1

Cc1ccc(C(=O)Nc2ccc(CN3CCN(C)CC3)c(C(F)(F)F)c2)cc1C#Cc1cnc2cccnn12 [PONATINIB]
0.186 µM: NCI-H2342
0.0998 µM: SUP-T1
0.204 µM: NCI-H2087
0.444 µM: SW1088
0.209 µM: PF-382
0.476 µM: CAL-120
0.315 µM: MFE-280
> 0.512 µM: Ca-Ski | DOK | DU-145 | EC-GI-10 | GP5d | HCC1569 | HO-1-N-1 | HT1197 | HuP-T4 | IGR-1 | IGROV-1 | J82 | K052 | KYSE-520 cell line | LU-99A | M14 | MEL-JUSO | NCI-H1417 | NCI-H1755 | NCI-H1993 | NCI-H2081 | NCI-H2196 | NCI-H292 | NCI-H64 | OAW-28 | OVCAR-5 | RL95-2 | RPMI-2650 | RVH-421 | S-117 | SBC-5 | SCC-3 | SK-OV-3 | SNU-423 | SW48 | T47D | CWR22R | 639-V | ASPC1 | BOKU | C32 | CAL-27 | CAL-62 | U-698-M | UACC-62 | CHL-1
0.177 µM: NCI-H520

C/C(=C\c1csc(C)n1)[C@@H]1C[C@@H]2O[C@]2(C)CCC[C@H](C)[C@H](O)[C@@H](C)C(=O)C(C)(C)[C@@H](O)CC(=O)O1 [PATUPILONE]
0.000875 µM: CAL-62
0.00309 µM: GP5d
0.00795 µM: OAW-28
0.00186 µM: TUR
0.00295 µM: NCI-H520
0.00284 µM: OVCAR-5
0.00642 µM: NCI-H1573
0.00868 µM: PF-382
0.00533 µM: LU-99A
0.000721 µM: DU-145
0.00167 µM: SNU-423
0.0015 µM: SK-OV-3
0.000912 µM: SBC-5
0.0104 µM: KYSE-520 cell line
0.000156 µM: IGROV-1
0.00139 µM: CAL-27
0.000218 µM: 639-V
0.00825 µM: NCI-H64
0.00166 µM: HO-1-N-1
0.000136 µM: VMRC-RCZ
0.0128 µM: HCC1569
0.0143 µM: RVH-421
0.000577 µM: NCI-H2342
0.000979 µM: CHL-1
0.00141 µM: J82
0.00254 µM: HuP-T4
0.00142 µM: NCI-H292
0.00311 µM: NCI-H2087
0.000863 µM: IGR-1
> 0.032 µM: DOK | EC-GI-10 | HT1197 | M14 | MFE-280 | NCI-H1755 | NCI-H1993 | NCI-H2081 | NCI-H2196 | S-117 | SCC-3 | SUP-T1 | T47D | ASPC1 | BOKU | C32 | UACC-62
0.0042 µM: SW48
0.00579 µM: SW1088
0.00776 µM: U-698-M
0.00584 µM: K052
0.0101 µM: CAL-120
0.021 µM: NCI-H1417
0.00841 µM: CWR22R
0.000928 µM: MEL-JUSO
0.0246 µM: MDA-MB-231
0.00385 µM: Ca-Ski
0.00208 µM: RPMI-2650
